Assay results taken from patent US20210094933A1, “RAPAFUCIN DERIVATIVE COMPOUNDS AND METHODS OF USE THEREOF” (The Johns Hopkins University, priority 2019, published 2021).
Numbered stars: 1 amine (or outer) side, 2 acyl side, 3 side chain; on linkers, the order of the positions; unused ones are H or OH. Bridge positions count the residues as written; N and C are the ends. Square brackets hold non-standard residues; d marks the D form. Peptide text beside a SMILES is read from it. * marks the point of attachment. X3 = COc1ccc(CC[C@H](O[*:2])c2cccc(OCC(=O)[*:1])c2)cc1OC; X2 = CN(CCC=CC(=O)OCC(C)(C)C(=O)C(=O)[*:2])[*:1]; 2Nal = N[C@@H](Cc1ccc2ccccc2c1)C(=O)O; dNMeNle = CCCC[C@@H](NC)C(=O)O; dNMeS = CN[C@H](CO)C(=O)O; dPip = O=C(O)[C@H]1CCCCN1; Sar = CNCC(=O)O; tBu = CC(C)(C)*

Tests used:
Assay type in all cases: cell-based
[1] = Cell proliferation assay, single concentration, response relative to DMSO; cell line indicated in each table; settings: for Rel. Prolif., NCI-H929: NCI-H929 cells
Protocol: (§1) Cell Proliferation Assay (Prolif.) Guo et al. (2018) Nat. Chem. 11:254-63. Specific cell lines are indicated in each assay and cultured in complete growth media. Activity is scored according to the IC50 values relative to DMSO control. “Low” indicates an IC50 greater than 600 nM, “Medium” indicates an IC50 between 300 nM and 600 nM “High” indicates an IC50 less than 300 nM. “Rel.Uptake” refers to uptake activity characterization relative to a single concentration assay. “Low” indicates a response greater than 0.6 times the activity relative to DMSO, “Medium” indicates a response between 0.6 and 0.3 times the activity relative to DMSO, “High” indicates a response less than 0.3 times the activity relative to DMSO.

H929 = test: Cell proliferation assay (Prolif.), IC50 relative to DMSO control; settings: H929 cells; for Prolif. H929: class relative to DMSO control; for Prolif, H929: IC50 class relative to DMSO control
Protocol: as §1

[2] = Nucleoside uptake assay, single concentration (Rel.Uptake), response relative to DMSO; cell line indicated in each table; settings: 293 T cells, nucleoside uptake at single concentration
Protocol: Nucleoside Uptake Assay (uptake). Nuceloside uptake assays were performed with using 3H-Thymidine as described in Guo et al. (2018) Nat. Chem, 11:254-63. Specific cell lines are indicated in each assay and cultured in complete growth media. Activity is scored according to the IC50 values relative to DMSO control. “Low” indicates an IC50 greater than 600 nM, “Medium” indicates an IC50 between 300 nM and 600 nM “High” indicates an IC50 less than 300 nM. “Rel.Uptake” refers to uptake activity characterization relative to a single concentration assay. “Low” indicates a response greater than 0.6 times the activity relative to DMSO, “Medium” indicates a response between 0.6 and 0.3 times the activity relative to DMSO, “High” indicates a response less than 0.3 times the activity relative to DMSO.

SMILES | Rel. Prolif., A549 ([1]; A549 cells) | Rel. Prolif., NCI-H929 [1] | Prolif. H929 (H929) | Prolif, H929 (H929) | Rel. Uptake, 293 T [2]
CCCC[C@@H]1C(=O)N[C@@H](Cc2ccc3ccccc3c2)C(=O)N(C)[C@H](COC(C)(C)C)C(=O)NCC(=O)N(C)CCC=CC(=O)OCC(C)(C)C(=O)C(=O)N2CCCC[C@@H]2C(=O)O[C@@H](CCc2ccc(OC)c(OC)c2)c2cccc(c2)OCC(=O)N(C)CC(=O)N1C [Compound 1] ([Sar][dNMeNle][2Nal][dNMeS](tBu)G[X2][dPip]; linker N-C via X3) | low | – | – | – | –
COc1ccc(CC[C@H]2OC(=O)[C@@H]3CCCCN3C(=O)C(=O)C(C)(C)COC(=O)C=CCCN(C)C(=O)[C@@H](Cc3ccccc3)NC(=O)CN(C)C(=O)[C@@H](Cc3ccccc3)NC(=O)[C@H](Cc3ccc(OC(=O)N4CCOCC4)cc3)N(C)C(=O)COc3cccc2c3F)cc1OC [Compound 867] | – | low | high | – | –
COc1ccc(CC[C@H]2OC(=O)[C@@H]3CCCCN3C(=O)C(=O)C(C)(C)COC(=O)C=CCCN(C)C(=O)[C@@H](Cc3ccccc3)NC(=O)CN(C)C(=O)[C@@H](Cc3ccccc3)NC(=O)[C@H](Cc3ccc(OC(=O)N4CCOCC4)cc3)N(C)C(=O)COc3cc(F)cc2c3)cc1OC [Compound 868] | – | low | low | – | –
COc1cc(CC[C@H]2OC(=O)[C@@H]3CCCCN3C(=O)C(=O)C(C)(C)COC(=O)C=CCCN(C)C(=O)[C@@H](Cc3ccccc3)NC(=O)CN(C)C(=O)[C@@H](Cc3ccccc3)NC(=O)[C@H](Cc3ccc(O)cc3)N(C)C(=O)COc3cccc2c3)cc(OC)c1OC [Compound 1566] | – | – | – | medium | medium
COc1cc(CC[C@H]2OC(=O)[C@@H]3CCCCN3C(=O)C(=O)C(C)(C)COC(=O)C=CCCN(C)C(=O)[C@@H](Cc3ccccc3)NC(=O)CN(C)C(=O)[C@@H](Cc3ccccc3)NC(=O)[C@H](Cc3ccc(O)cc3)N(C)C(=O)COc3cccc2c3)cc(O)c1OC [Compound 1567] | – | – | – | medium | medium
COc1cc(O)c(CC[C@H]2OC(=O)[C@@H]3CCCCN3C(=O)C(=O)C(C)(C)COC(=O)C=CCCN(C)C(=O)[C@@H](Cc3ccccc3)NC(=O)CN(C)C(=O)[C@@H](Cc3ccccc3)NC(=O)[C@H](Cc3ccc(O)cc3)N(C)C(=O)COc3cccc2c3)cc1OC [Compound 1568] | – | – | – | low | low
COc1cc(CC[C@H]2OC(=O)[C@@H]3CCCCN3C(=O)C(=O)C(C)(C)COC(=O)C=CCCN(C)C(=O)[C@@H](Cc3ccccc3)NC(=O)CN(C)C(=O)[C@@H](Cc3ccccc3)NC(=O)[C@H](Cc3ccc(O)cc3)N(C)C(=O)COc3cccc2c3)cc(F)c1OC [Compound 1569] | – | – | – | low | low
COc1cc(F)c(CC[C@H]2OC(=O)[C@@H]3CCCCN3C(=O)C(=O)C(C)(C)COC(=O)C=CCCN(C)C(=O)[C@@H](Cc3ccccc3)NC(=O)CN(C)C(=O)[C@@H](Cc3ccccc3)NC(=O)[C@H](Cc3ccc(O)cc3)N(C)C(=O)COc3cccc2c3)cc1OC [Compound 1570] | – | – | – | medium | medium
COc1ccc(CC[C@H]2OC(=O)[C@@H]3CCCCN3C(=O)C(=O)C(C)(C)COC(=O)C=CCCN(C)C(=O)[C@@H](Cc3ccccc3)NC(=O)CN(C)C(=O)[C@@H](Cc3ccccc3)NC(=O)[C@H](Cc3ccc(O)cc3)N(C)C(=O)COc3cccc2c3)c(F)c1OC [Compound 1571] | – | – | – | low | low
COc1ccc(CC[C@H]2OC(=O)[C@@H]3CN(C(=O)OCC4c5ccccc5-c5ccccc54)CCN3C(=O)C(=O)C(C)(C)COC(=O)C=CCCN(C)C(=O)[C@@H](Cc3ccccc3)NC(=O)CN(C)C(=O)[C@@H](Cc3ccccc3)NC(=O)[C@H](Cc3ccc(O)cc3)N(C)C(=O)COc3cccc2c3)cc1OC [Compound 1572] | – | – | – | low | low
COc1ccc(CC[C@H]2OC(=O)[C@@H]3CNCCN3C(=O)C(=O)C(C)(C)COC(=O)C=CCCN(C)C(=O)[C@@H](Cc3ccccc3)NC(=O)CN(C)C(=O)[C@@H](Cc3ccccc3)NC(=O)[C@H](Cc3ccc(O)cc3)N(C)C(=O)COc3cccc2c3)cc1OC [Compound 1573] | – | – | – | low | low
COc1ccc(CC[C@H]2OC(=O)[C@@H]3CN(C)CCN3C(=O)C(=O)C(C)(C)COC(=O)C=CCCN(C)C(=O)[C@@H](Cc3ccccc3)NC(=O)CN(C)C(=O)[C@@H](Cc3ccccc3)NC(=O)[C@H](Cc3ccc(O)cc3)N(C)C(=O)COc3cccc2c3)cc1OC [Compound 1574] | – | – | – | low | low
COc1ccc(CC[C@H]2OC(=O)[C@@H]3CCCCN3C(=O)C(=O)C(C)(C)COC(=O)C=CCCN(C)C(=O)[C@@H](Cc3ccccc3)NC(=O)CN(C)C(=O)[C@@H](Cc3ccccc3)NC(=O)[C@H](Cc3ccc(O)cc3)N(C)C(=O)COc3ccc(F)c2c3)cc1OC [Compound 1575] | – | – | – | low | low
COc1ccc(CC[C@H]2OC(=O)[C@@H]3CCCCN3C(=O)C(=O)C(C)(C)COC(=O)C=CCCN(C)C(=O)[C@@H](Cc3ccccc3)NC(=O)CN(C)C(=O)[C@@H](Cc3ccccc3)NC(=O)[C@H](Cc3ccc(O)cc3)N(C)C(=O)COc3cc(F)cc2c3)cc1OC [Compound 1576] | – | – | – | medium | medium
COc1ccc(CC[C@H]2OC(=O)[C@@H]3CCCCN3C(=O)C(=O)C(C)(C)COC(=O)C=CCCN(C)C(=O)[C@@H](Cc3ccccc3)NC(=O)CN(C)C(=O)[C@@H](Cc3ccccc3)NC(=O)[C@H](Cc3ccc(O)cc3)N(C)C(=O)COc3cccc2c3)c(OC)c1OC [Compound 1577] | – | – | – | medium | medium
COc1ccc(CC[C@H]2OC(=O)[C@@H]3CCCCN3C(=O)C(=O)C(C)(C)COC(=O)C=CCCN(C)C(=O)[C@@H](Cc3ccccc3)NC(=O)CN(C)C(=O)[C@@H](Cc3ccccc3)NC(=O)[C@H](Cc3ccc(O)cc3)N(C)C(=O)COc3cc2ccc3F)cc1OC [Compound 1578] | – | – | – | low | low
COc1ccc(CC[C@H]2OC(=O)[C@@H]3CCCCN3C(=O)C(=O)C(C)(C)COC(=O)C=CCCN(C)C(=O)[C@@H](Cc3ccccc3)NC(=O)CN(C)C(=O)[C@@H](Cc3ccccc3)NC(=O)[C@H](Cc3ccc(O)cc3)N(C)C(=O)COc3cccc2c3F)cc1OC [Compound 1579] | – | – | – | medium | medium
COc1ccc(CC[C@H]2OC(=O)[C@@H]3CCCCN3C(=O)C(=O)C(C)(C)COC(=O)C=CCCN(C)C(=O)[C@@H](Cc3ccccc3)NC(=O)CN(C)C(=O)[C@@H](Cc3ccccc3)NC(=O)[C@H](Cc3ccc(O)cc3)N(C)C(=O)COc3cncc2c3)cc1OC [Compound 1580] | – | – | – | low | low
COc1cc(OC)c(OC)cc1CC[C@H]1OC(=O)[C@@H]2CCCCN2C(=O)C(=O)C(C)(C)COC(=O)C=CCCN(C)C(=O)[C@@H](Cc2ccccc2)NC(=O)CN(C)C(=O)[C@@H](Cc2ccccc2)NC(=O)[C@H](Cc2ccc(O)cc2)N(C)C(=O)COc2cccc1c2 [Compound 1581] | – | – | – | medium | medium
COc1cc(CC[C@H]2OC(=O)[C@@H]3CCCCN3C(=O)C(=O)C(C)(C)COC(=O)C=CCCN(C)C(=O)[C@@H](Cc3ccccc3)NC(=O)CN(C)C(=O)[C@@H](Cc3ccccc3)NC(=O)[C@H](Cc3ccc(O)cc3)N(C)C(=O)COc3cccc2c3)c(OC)c(OC)c1 [Compound 1582] | – | – | – | low | low
COc1ccc(OC)c(OC)c1CC[C@H]1OC(=O)[C@@H]2CCCCN2C(=O)C(=O)C(C)(C)COC(=O)C=CCCN(C)C(=O)[C@@H](Cc2ccccc2)NC(=O)CN(C)C(=O)[C@@H](Cc2ccccc2)NC(=O)[C@H](Cc2ccc(O)cc2)N(C)C(=O)COc2cccc1c2 [Compound 1583] | – | – | – | low | low
COc1ccc(CC[C@H]2OC(=O)[C@@H]3CCCCN3C(=O)C(=O)C(C)(C)COC(=O)C=CCCN(C)C(=O)[C@@H](Cc3ccccc3)NC(=O)CN(C)C(=O)[C@@H](Cc3ccccc3)NC(=O)[C@H](Cc3ccc(O)cc3)N(C)C(=O)COc3cccc2c3)c(O)c1OC [Compound 1584] | – | – | – | low | low
COc1ccc(CC[C@H]2OC(=O)[C@@H]3CCCCN3C(=O)C(=O)C(C)(C)COC(=O)C=CCCN(C)C(=O)[C@@H]3CCCN3C(=O)[C@H](COC(C)(C)C)N(C)C(=O)[C@@H](c3ccccc3)NC(=O)[C@H](C)N(C)C(=O)COc3cc(F)cc2c3)cc1OC [Compound 1595] | – | – | – | – | Low (“Low” indicates a response greater than 0.6 times the activity relative to DMSO)
COc1ccc(CC[C@H]2OC(=O)[C@@H]3CCCCN3C(=O)C(=O)C(C)(C)COC(=O)C=CCCN(C)C(=O)[C@@H]3CCCN3C(=O)[C@H](COC(C)(C)C)N(C)C(=O)[C@H](c3ccccc3)NC(=O)[C@H](C)N(C)C(=O)COc3cc(F)cc2c3)cc1OC [Compound 1596] | – | – | – | – | Low (“Low” indicates a response greater than 0.6 times the activity relative to DMSO)
